According to US8889689B2, “Bifunctional metnase/intnase inhibitors and related compositions and methods of treatment of cancer” (STC.UNM, priority 2010, dated 2014):
Entries after “also recorded” stand apart in the source; their conditions may differ.

Legend:
[1] = tested on: Raji leukemia cells; test: Cytotoxicity / proliferation at varying concentrations vs vehicle control; assay type: cell-based
Procedure: (§1) In separate experiments, the bifunctional Metnase inhibitor, 4h-new3 (see FIGS. 4 and 43) and the monofunctional Metnase inhibitor 4h (FIG. 1 and FIG. 43), were tested at varying concentrations to determine cytotoxic activity in Raji leukemia eels and MCI-H929 myeloma cells. The compounds were tested against vehicle control at varying concentrations in the above-described cancer cell lines.

[2] = tested on: NCI-H929 myeloma cells; test: as above; assay type: cell-based
Procedure: as §1

[3] = tested on: KG-1 leukemia cells; test: KG-1 cell survival and proliferation (trypan blue counts), alone or with VP-16; assay type: cell-based, human; conditions: KG-1 cells
From the text: KG-1 cells are a human acute myeloid leukemia cell line established from a patient with acute myelogenous leukemia that had evolved from an erythroleukemia. Cytotoxicity of etoposide, a semisynthetic derivative of podophyllotoxin that also is called Vepesid (Bristol; code designation VP-16-213, abbreviated VP-16), is mediated by its interaction with DNA topoisomerase II (Topo II), an ATP-dependent nuclear enzyme that regulates DNA topology by transiently breaking and rejoining double-stranded DNA to allow DNA strand passage. Under normal conditions, the formation of a DNA strand break by Topo II is followed by precise realignment and resealing of the broken ends.
The human myeloid cell line KG-1 was grown in RPMI1640 with 10% FBS. The small cell lung cancer cell line CRL5898 was grown in HITES medium (Dulbecco's medium:Ham's F12, 50:50 mix, Insulin 0.005 mg/ml Transferrin 0.01 mg/ml Sodium selenite 30 nM Hydrocortisone 10 nM beta-estradiol 10 nM HEPES 10 mM L-glutamine 2 mM (in addition to that in the base medium)). Both cell lines were seeded at 10,000 cells/ml in the appropriate medium in 6 well plates. The Chem Div compounds were resuspended as 5 mM stock solutions in DMSO. […] Cells were plated and treated in triplicate and counted daily for 4 days in trypan blue to assess survival and proliferation.

[4] = tested on: A549 lung cancer cells; test: Colony formation assay, alone or in combination with cisplatin
[5] = A549, compound constantly present, cisplatin present for a shorter period
[6] = A549, compound present for 24 hours at the beginning then removed

SMILES: CC(C)n1cc(C(=O)O)c(=O)c2ccc(C(=O)c3ccc(CN(CCCl)CCCl)cc3)cc21 [4H_new3]
- level at which proliferation is decreased [1]: below 1 μM
- decrease of cancer cell proliferation compared with monofunctional inhibitor 4h ([1]; varying concentrations): significantly more effective at decreasing cancer cell proliferation
- level at which proliferation is decreased [2]: below 1 μM
- decrease of cancer cell proliferation compared with monofunctional inhibitor 4h ([2]; varying concentrations): significantly more effective at decreasing cancer cell proliferation

SMILES: CC(C)n1cc(C(=O)O)c(=O)c2ccccc21 [5483-0023]
- cytotoxic activity / proliferation, compound on its own ([3]; compound alone): has cytotoxic activity on its own; also recorded: Decreases Proliferation of KG-1 Cells on its Own
- potentiation of cytotoxic activity of VP-16 ([3]; in combination with VP-16): increases the cytotoxic activity of the anti-cancer drug VP-16; also recorded: Potentiates VP-16

SMILES: Cn1c(CCCC(=O)N2CCN(c3cc4c(cc3F)c(=O)c(C(=O)O)cn4C3CC3)CC2)nc2cc(N(CCCl)CCCl)ccc21 [WW-01]
- cytotoxicity of compound compared with cisplatin [4, 5]: significantly greater activity than cisplatin
- effect against colony survival, in combination with cisplatin [4, 5]: especially active in combination with cisplatin at higher concentrations

SMILES: O=C(O)c1cn(C2CC2)c2cc(N3CCN(C(=O)CCCc4ccc(N(CCCl)CCCl)cc4)CC3)c(F)cc2c1=O [WW-10]
- cytotoxicity of compound compared with cisplatin ([4]; A549, compound present 24 hours, cisplatin at higher concentration, shorter period): greater colony forming cell cytotoxicity than did cisplatin present at a higher concentration
- effect against colony survival, compound alone [4, 6]: significant dose dependent effect against colony survival
- effect against colony survival, in combination with cisplatin [4, 6]: especially active in combination with cisplatin at higher concentrations; also recorded: significant dose dependent effect against colony survival
